Experiments:
[1] = tested on: tonic extensor seizures elicited by maximal electroshock; test: electroshock induced convulsion inhibition assay (E.S.); type: in vivo, Cox standard strain albino male mice; conditions: mouse, oral dose (gavage), 0.1 second 50 milliampere corneal electroshock, inhibition of extensor tonic convulsions, at time of optimal response
Experimental: In the electroshock induced convulsion inhibition assay (E.S.), the compound to be tested was suspended in acacia and administered by gavage to each of ten Cox standard strain albino male mice (18-24 g) at the dose level being investigated. […] The animals were examined and evaluated immediately after the electroshock for the occurrence of clonic, flexor tonic, or extensor tonic convulsions, or death and the ED50 was determined for each compound as the dose which inhibited the occurrence of extensor tonic convulsions in one half of the animals immediately after the electroshock. For comparison, 18 milliamperes was usually sufficient to produce extensor tonic convulsions in about half of the control animals; at 50 milliamperes, almost all control animals (receiving vehicle only) died. The test results summarized in Table I are reported as the ED50 values at the time interval found to provide an optimal response after dosing.

[2] = tested on: seizures in man; conditions: Gilman, Goodman, and Gilman, 6th Ed., p. 455; cited from earlier work

**Q.** Which ED50 [1] does the source give for `Cc1cccc(C)c1NC(=O)c1ccc(-n2ccnc2)cc1.Cl` [Example 10, N-(2,6-dimethylphenyl)-4-(1H-imidazol-1-yl)benzamide hydrochloride] here?
**A.** ~50 mg/kg

**Q.** With `Cc1cccc(C)c1NC(=O)c1ccc(CN)cc1.Cl` [Example 11, 4-(Aminomethyl)-N-(2,6-dimethylphenyl)benzamide hydrochloride] as the compound, how does the ED50 [1] read?
**A.** 38 mg/kg

**Q.** Which ED50 [1] does the source give for `Cc1ccc(C(=O)Nc2c(C)cccc2C)cc1` [Example 3, N-(2,6-dimethylphenyl)-4-methylbenzamide] here?
**A.** ~250 mg/kg

**Q.** With `Cc1cccc(C)c1NC(=O)c1ccc([S+](C)[O-])cc1` (stereo not shown) [Example 13, N-(2,6-dimethylphenyl)-4-(methylsulfinyl)benzamide] as the compound, how does the ED50 [1] read?
**A.** 13 mg/kg

**Q.** With `CCCN(C)c1ccc(C(=O)Nc2c(C)cccc2C)cc1` [Example 9, N-(2,6-dimethylphenyl)-4-(methylpropylamino)benzamide] as the compound, how does the ED50 [1] read?
**A.** 4.6 mg/kg

**Q.** With `Cc1cccc(C)c1NC(=O)c1ccc(O)cc1` [Example 15, N-(2,6-dimethylphenyl)-4-hydroxybenzamide] as the compound, how does the ED50 [1] read?
**A.** 11.2 mg/kg

**Q.** With `Cc1cccc(C)c1NC(=O)c1ccc(C(F)(F)F)cc1` [Example 1, N-(2,6-dimethylphenyl)-4-(trifluoromethyl)benzamide] as the compound, how does the ED50 [1] read?
**A.** ~225 mg/kg

**Q.** For `Cc1cccc(C)c1NC(=O)c1ccc(C#N)cc1` [Example 2, 4-Cyano-N-(2,6-dimethylphenyl)benzamide], which ED50 [1] is on record?
**A.** 13.2 mg/kg

**Q.** With `Cc1cccc(C)c1NC(=O)c1ccc(N(C)C)cc1` [Example 6, 4-(Dimethylamino)-N-(2,6-dimethylphenyl)benzamide] as the compound, how does the ED50 [1] read?
**A.** 3.65 mg/kg

**Q.** Which ED50 [1] does the source give for `CSc1ccc(C(=O)Nc2c(C)cccc2C)cc1` [Example 5, N-(2 6-dimethylphenyl)-4-(methylthio)benzamide] here?
**A.** ~75 mg/kg

**Q.** For `Cc1cccc(C)c1NC(=O)c1ccc(C(N)=O)cc1` [Example 12, N-(2,6-Dimethylphenyl)-1,4-benzenedicarboxamide], which ED50 [1] is on record?
**A.** ~75 mg/kg

**Q.** With `Cc1cccc(C)c1NC(=O)c1ccc(S(C)(=O)=O)cc1` [Example 14, N-(2,6-dimethylphenyl)-4-(methylsulfonyl)benzamide] as the compound, how does the ED50 [1] read?
**A.** 14 mg/kg

**Q.** With `CCNc1ccc(C(=O)Nc2c(C)cccc2C)cc1` [Example 7, N-(2,6-dimethylphenyl)-4-(ethylamino)benzamide] as the compound, how does the ED50 [1] read?
**A.** 2.45 mg/kg

**Q.** With `O=C1NC(=O)C(c2ccccc2)(c2ccccc2)N1` [phenytoin] as the compound, how does the “plasma level at which seizures are controlled” value [2] read?
**A.** ≥ 10 µg/mL

**Q.** With `CNc1ccc(C(=O)Nc2c(C)cccc2C)cc1` [Example 8, N-(2,6-dimethylphenyl)-4-(methylamino)benzamide] as the compound, how does the ED50 [1] read?
**A.** 2 mg/kg

**Q.** With `COc1ccc(C(=O)Nc2c(C)cccc2C)cc1` [Example 4, N-(2,6-dimethylphenyl)-4-methoxybenzamide] as the compound, how does the ED50 [1] read?
**A.** 15 mg/kg

Reference: US4939163A, “Anticonvulsant agents” (Eli Lilly and Company, priority 1989, dated 1990)
